Data from paper PMC11005446 (European journal of pharmaceutical sciences : official …, 2021).
Like-named read-outs stand apart in the source and are kept apart here. One block for each compound: values may come before it.

Columns and labels:
[1] = tested on: OATP1B1 and OATP1B3; conditions: for Co-Incubation R / Pre+Co-Incubation R: Hepatocytes, substrate rosuvastatin, R-value model; for accumulation of [3H]rosuvastatin after inhibitor pre-incubation: washing
[2] = tested on: OATP1B1 and OATP1B3; assay: Inhibition of [3H]pitavastatin accumulation in human SCH; format: in vitro ADME; conditions: for Co-Incubation R / Pre+Co-Incubation R: Hepatocytes, substrate pitavastatin, R-value model; for accumulation of [3H]pitavastatin after inhibitor pre-incubation: human SCH, washing
[3] = molecular target: T1, OATP1B3 (Homo sapiens, UniProt Q9NPD5); assay: Inhibition of [3H]CCK-8 accumulation in human SCH; format: in vitro ADME; conditions: mean ± SE
T1 sequence (Q9NPD5 1-702): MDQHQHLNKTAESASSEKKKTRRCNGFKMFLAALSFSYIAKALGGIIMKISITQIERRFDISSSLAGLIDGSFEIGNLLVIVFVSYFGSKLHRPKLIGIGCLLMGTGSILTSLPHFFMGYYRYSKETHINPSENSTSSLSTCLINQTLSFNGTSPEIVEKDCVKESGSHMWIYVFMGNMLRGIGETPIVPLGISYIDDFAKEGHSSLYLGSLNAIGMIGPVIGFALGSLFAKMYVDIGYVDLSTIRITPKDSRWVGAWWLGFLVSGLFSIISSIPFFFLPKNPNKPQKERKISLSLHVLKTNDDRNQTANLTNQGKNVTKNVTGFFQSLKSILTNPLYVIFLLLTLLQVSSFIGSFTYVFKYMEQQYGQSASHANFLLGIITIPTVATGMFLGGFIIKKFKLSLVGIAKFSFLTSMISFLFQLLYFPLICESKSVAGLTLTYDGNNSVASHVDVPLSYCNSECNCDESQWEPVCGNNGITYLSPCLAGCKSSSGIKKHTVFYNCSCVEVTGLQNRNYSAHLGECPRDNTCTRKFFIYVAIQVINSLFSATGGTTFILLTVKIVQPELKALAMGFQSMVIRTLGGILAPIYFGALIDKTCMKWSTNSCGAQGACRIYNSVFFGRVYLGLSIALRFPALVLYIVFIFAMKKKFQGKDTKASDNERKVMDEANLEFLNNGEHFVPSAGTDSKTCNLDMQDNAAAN

[4] = tested on: OATP1B1; conditions: OATP1B1-expressing cell line, substrate E217βG; ref Pahwa et al., 2017; cited from earlier work
[5] = molecular target: T1, OATP1B3; conditions: OATP1B3-expressing cell line, substrate E217βG; ref Pahwa et al., 2017; cited from earlier work
[6] = tested on: OATP1B1 and OATP1B3; conditions: both cell lines and human SCH; vs US FDA cut-off 1.1
[7] = tested on: OATP1B1 and OATP1B3; conditions: transporter-expressing cell lines; ref Farasyn et al., 2019; cited from earlier work
[8] = Estimated maximum total plasma concentration at the inlet to the liver; conditions: calculated by Eq. 3 from literature parameters (Supplement Table S2)
[9] = tested on: OATP1B1; conditions: OATP1B1-expressing cell line, substrate rosuvastatin; ref Farasyn et al., 2019; cited from earlier work
[10] = tested on: cynomolgus monkey hepatocytes; conditions: ref Ufuk et al., 2018; cited from earlier work
[11] = tested on: OATP1B1; conditions: read-out: Michaelis constant (Km) for OATP1B1, cited from earlier work
[12] = tested on: OATP1B3; conditions: cited from earlier work
[13] = tested on: OATP1B1, NTCP, and OATP1B3; conditions: ref Ho et al., 2006; Kitamura et al., 2008; cited from earlier work
[14] = tested on: human hepatocytes; conditions: suspension of human hepatocytes, with vs without rifampicin; ref Bi et al., 2013; cited from earlier work
[15] = human hepatocytes, inhibitor 100 μM co-incubation, mean ± SE

Compound: O=C1OC(c2ccc(O)c(S(=O)(=O)O)c2)(c2ccc(O)c(S(=O)(=O)O)c2)c2c(Br)c(Br)c(Br)c(Br)c21 [BSP, bromosulfophthalein]
accumulation of [3H]rosuvastatin, co-incubation [1, 15]: 0.20 ± 0.09 fold of control
inhibition of rosuvastatin uptake, co-incubation ([1]; human hepatocytes, inhibitor 100 μM co-incubation, range 77–92%): ~ 84%
accumulation of [3H]pitavastatin, co-incubation [2, 15]: 0.44 ± 0.05 fold of control
accumulation of [3H]CCK-8, co-incubation ([3]; human hepatocytes, inhibitor 100 μM co-incubation): 0.10 ± 0.01 fold of control

Compound: Cc1nc(Nc2ncc(C(=O)Nc3c(C)cccc3Cl)s2)cc(N2CCN(CCO)CC2)n1 [Dasatinib, dasatinib]
Co-Incubation R [1]: 1.09 (1.05–1.14)
Pre+Co-Incubation R [1]: 1.27 (1.15–1.51)
Co-Incubation R [4]: 1.07 (1.04–1.09)
Pre+Co-Incubation R [4]: 1.13 (1.09–1.20)
Co-Incubation R [5]: 1.05 (1.05–1.09)
Pre+Co-Incubation R [5]: 1.11 (1.09–1.22)
R-values under pre+co-incubation conditions [6]: > 1.1

Pre+Co-Incubation R [1]: 1.07 (1.05–1.11)
Co-Incubation R [2]: 1.01 (1.01–1.02)
Pre+Co-Incubation R [2]: 1.09 (1.08–1.13)
maximum total plasma concentration at the inlet to the liver (Iin,max,plasma) [8]: 0.17 µM
Compound: CO[C@H]1C[C@@H]2CC[C@@H](C)[C@@](O)(O2)C(=O)C(=O)N2CCCC[C@H]2C(=O)O[C@H]([C@H](C)C[C@@H]2CC[C@@H](OCCO)[C@H](OC)C2)CC(=O)[C@H](C)/C=C(\C)[C@@H](O)[C@@H](OC)C(=O)[C@H](C)C[C@H](C)/C=C/C=C/C=C/1C [EVR, everolimus]
accumulation of [3H]rosuvastatin after inhibitor pre-incubation ([1]; human SCH, 1 h pre-incubation at 0.2 μM, model estimate ± SE): 0.8 ± 0.07 fold of CTL
accumulation of [3H]rosuvastatin after inhibitor pre-incubation ([1]; human SCH, 1 h pre-incubation at 0.8 μM, model estimate ± SE): 0.59 ± 0.07 fold of CTL
accumulation of [3H]pitavastatin after inhibitor pre-incubation ([2]; 1 h pre-incubation at 0.5 μM, model estimate ± SE): 0.78±0.06 fold vs. CTL
R values from cell lines, pre+co-incubation [7]: 1.23

Co-Incubation R [1]: 1.00 (1.00–1.00)
Pre+Co-Incubation R [1]: 1.00 (1.00–1.00)
Co-Incubation R [2]: 1.00 (1.00–1.01)
Pre+Co-Incubation R [2]: 1.00 (1.00–1.01)
R-values under pre+co-incubation conditions [6]: < 1.1
maximum total plasma concentration at the inlet to the liver (Iin,max,plasma) [8]: 0.03 µM
Compound: CO[C@H]1C[C@@H]2CC[C@@H](C)[C@@](O)(O2)C(=O)C(=O)N2CCCC[C@H]2C(=O)O[C@H]([C@H](C)C[C@@H]2CC[C@@H](O)[C@H](OC)C2)CC(=O)[C@H](C)/C=C(\C)[C@@H](O)[C@@H](OC)C(=O)[C@H](C)C[C@H](C)/C=C/C=C/C=C/1C [SIR, sirolimus]
accumulation of [3H]rosuvastatin after inhibitor pre-incubation ([1]; human SCH, 1 h pre-incubation at 0.6 μM): 0.63 ± 0.08 fold vs. CTL
accumulation of [3H]pitavastatin after inhibitor pre-incubation ([2]; 1 h pre-incubation at 0.6 μM): did not affect
Co-Incubation R [9]: 1.00 (1.00–1.03)

Compound: O=C(O)C[C@H](O)C[C@H](O)/C=C/c1c(C2CC2)nc2ccccc2c1-c1ccc(F)cc1 [pitavastatin]
uptake clearance attributed to passive diffusion [10]: 20%
Km ([11]; ref Hirano et al., 2004): 3 µM
Km ([12]; read-out: Michaelis constant (Km) for OATP1B3, ref Hirano et al., 2004): 3 µM

Compound: CO[C@H]1/C=C/O[C@@]2(C)Oc3c(C)c(O)c4c(O)c(c(/C=N/N5CCN(C)CC5)c(O)c4c3C2=O)NC(=O)/C(C)=C\C=C\[C@H](C)[C@H](O)[C@@H](C)[C@@H](O)[C@@H](C)[C@H](OC(C)=O)[C@@H]1C [rifampicin]
accumulation of [3H]rosuvastatin, pre+co-incubation ([1]; human SCH, inhibitor 50 μM, 1 h pre-incubation then co-incubation, mean ± SE): 0.45 ± 0.15 fold of control
accumulation of [3H]CCK-8, pre+co-incubation ([3]; human SCH, inhibitor 50 μM, 1 h pre-incubation then co-incubation): 0.18 ±0.12 fold of control

Compound: CC(C)c1nc(N(C)S(C)(=O)=O)nc(-c2ccc(F)cc2)c1/C=C/[C@@H](O)C[C@@H](O)CC(=O)O [rosuvastatin]
contribution of NTCP to active uptake into human hepatocytes [13]: ~35%
contribution of OATP1B1 to active uptake into human hepatocytes [13]: ~ 50%
contribution of OATP1B3 to active uptake into human hepatocytes [13]: ~15%
uptake clearance attributed to passive diffusion [10]: 4%
share of total hepatic uptake clearance due to active transport processes [14]: approximately 90%
Km ([11]; ref Kitamura et al., 2008): 0.8 µM
Km ([12]; read-out: Michaelis constant (Km) for OATP1B3, ref Kitamura et al., 2008): 14.2 µM

Compound: cholecystokinin 8 [CCK-8]
Km [12]: 3.8 µM
